Results published in patent publication US11267811B2, “Small molecule inhibitors of galectin-3” (BRISTOL-MYERS SQUIBB COMPANY, priority 2017, dated 2022).

Molecular target: His-tagged recombinant human Gal-3 (hGal-3) (Homo sapiens (Human), UniProt P17931)
Assay: Gal-3 HTRF assay (His-tagged hGal-3 binding to B-ASF);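 note: compounds preincubated 30 min with hGal-3, then 1 h with B-ASF, detection via terbium anti-His antibody and streptavidin d2. Control with B-ASF counts as full signal, omitting B-ASF as background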
Details: read-out: hGal IC50

Chain of His-tagged recombinant human Gal-3 (hGal-3) (P17931 whole entry): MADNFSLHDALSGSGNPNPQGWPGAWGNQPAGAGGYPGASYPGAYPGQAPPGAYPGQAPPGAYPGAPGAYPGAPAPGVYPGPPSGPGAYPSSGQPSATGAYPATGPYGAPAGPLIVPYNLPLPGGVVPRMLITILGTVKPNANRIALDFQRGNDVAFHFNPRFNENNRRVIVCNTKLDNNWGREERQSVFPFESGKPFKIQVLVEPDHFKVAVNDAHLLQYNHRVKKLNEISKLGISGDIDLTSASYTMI

| SMILES | IC50 [nM] |
| --- | --- |
| Cc1nc([C@@H]2O[C@H](CO)[C@H](O)[C@H](n3cc(-c4ccc(Br)c(F)c4)nn3)[C@H]2O)n(-c2ccc3ncsc3c2)n1 [Example A22] | 22 |
| Cc1nc([C@@H]2O[C@H](CO)[C@H](O)[C@H](n3cc(-c4cc(F)c(Cl)c(Cl)c4)nn3)[C@H]2O)n(-c2ccc3ncsc3c2)n1 [Example A24] | 34 |
| Cc1nc([C@@H]2O[C@H](CO)[C@H](O)[C@H](n3cc(-c4cc(F)c(Cl)c(Cl)c4)nn3)[C@H]2O)n(-c2ccc3nc(C)sc3c2)n1 [Example A25] | 45 |
| Cc1nc([C@@H]2O[C@H](CO)[C@H](O)[C@H](n3cc(-c4cc(F)c(Br)c(F)c4)nn3)[C@H]2O)n(-c2ccc3ncsc3c2)n1 [Example A29] | 27 |
| Cc1nc([C@@H]2O[C@H](CO)[C@H](O)[C@H](n3cc(-c4cc(F)c(Br)c(F)c4)nn3)[C@H]2O)n(-c2ccc3nc(C)sc3c2)n1 [Example A32] | 41 |
| Cc1nc([C@@H]2O[C@H](CO)[C@H](O)[C@H](n3cc(-c4cc(F)c(Br)c(F)c4)nn3)[C@H]2O)n(-c2cc3sc(C)nc3cc2C(F)(F)F)n1 [Example A33] | 103 |
| Cc1nc([C@@H]2O[C@H](CO)[C@H](O)[C@H](n3cc(-c4cc(F)c(Cl)c(F)c4)nn3)[C@H]2O)n(-c2cc(Cl)ccc2C2CC2)n1 [Example A34] | 46 |
| Cc1nc([C@@H]2O[C@H](CO)[C@H](O)[C@H](n3cc(-c4ccc(Br)c(F)c4)nn3)[C@H]2O)n(-c2cc(Cl)cc3ccncc23)n1 [Example A39] | 161 |
| Cc1nc([C@@H]2O[C@H](CO)[C@H](O)[C@H](n3cc(-c4cc(F)c(Cl)c(F)c4)nn3)[C@H]2O)n(-c2cc(CC(F)(F)F)ccc2Cl)n1 [Example A40] | 126 |
| Cc1nc([C@@H]2O[C@H](CO)[C@H](O)[C@H](n3cc(-c4ccc(Cl)c(F)c4)nn3)[C@H]2O)n(-c2cc(Cl)ccc2C2CC2)n1 [Example A41] | 59 |
| Cc1nc([C@@H]2O[C@H](CO)[C@H](O)[C@H](n3cc(-c4cc(F)c(Cl)c(F)c4)nn3)[C@H]2O)n(-c2cc(Cl)ccc2C(C)(C)C)n1 [Example A42] | 11 |
| Cc1nc([C@@H]2O[C@H](CO)[C@H](O)[C@H](n3cc(-c4ccc(Cl)c(F)c4F)nn3)[C@H]2O)n(-c2cc(Cl)ccc2C2CC2)n1 [Example A44] | 140 |
| Cc1nc([C@@H]2O[C@H](CO)[C@H](O)[C@H](n3cc(-c4cc(F)c(Cl)c(F)c4)nn3)[C@H]2O)n(-c2cc(Cl)c(F)cc2Cl)n1 [Example A46] | 33 |
| Cc1nc([C@@H]2O[C@H](CO)[C@H](O)[C@H](n3cc(-c4ccc(Cl)c(F)c4)nn3)[C@H]2O)n(-c2cc(Cl)cc(F)c2Cl)n1 [Example A48] | 47 |
| Cc1nc([C@@H]2O[C@H](CO)[C@H](O)[C@H](n3cc(-c4cc(F)c(Cl)c(F)c4)nn3)[C@H]2O)n(-c2cc(Cl)cc(F)c2Cl)n1 [Example A49] | 46 |
| Cc1nc([C@@H]2O[C@H](CO)[C@H](O)[C@H](n3cc(-c4cc(F)c(Cl)c(F)c4)nn3)[C@H]2O)n(-c2cc(Cl)c(Cl)cc2Cl)n1 [Example A53] | 58 |
| Cc1nc([C@@H]2O[C@H](CO)[C@H](O)[C@H](n3cc(-c4cc(F)c(Cl)c(Cl)c4)nn3)[C@H]2O)n(-c2cc(Cl)ccc2Cl)n1 [Example A54] | 48 |
| Cc1nc([C@@H]2O[C@H](CO)[C@H](O)[C@H](n3cc(-c4cc(F)c(Cl)c(Cl)c4)nn3)[C@H]2O)n(-c2cc(Cl)ccc2C(F)(F)F)n1 [Example A55] | 20 |
| Cc1nc([C@@H]2O[C@H](CO)[C@H](O)[C@H](n3cc(-c4ccc(Br)c(F)c4)nn3)[C@H]2O)n(-c2cc(Cl)ccc2C(F)F)n1 [Example A61] | 49 |
| Cc1nc([C@@H]2O[C@H](CO)[C@H](O)[C@H](n3cc(-c4ncc(Cl)cc4Cl)nn3)[C@H]2O)n(-c2cc(Cl)ccc2C(F)(F)F)n1 [Example A62] | 172 |
| COc1ccc(C(F)(F)F)c(-n2nc(C)nc2[C@@H]2O[C@H](CO)[C@H](O)[C@H](n3cc(-c4cc(F)c(Cl)c(F)c4)nn3)[C@H]2O)c1 [Example A64] | 42 |
| Cc1nc([C@@H]2O[C@H](CO)[C@H](O)[C@H](n3cc(-c4ccc5nccnc5c4)nn3)[C@H]2O)n(-c2cc(Cl)ccc2C(F)(F)F)n1 [Example A66] | 208 |

The next lines start with the values.

| IC50 [nM] | SMILES |
| --- | --- |
| 36 | Cc1nc([C@@H]2O[C@H](CO)[C@H](O)[C@H](n3cc(-c4cc(F)c(Cl)c(Cl)c4)nn3)[C@H]2O)n(-c2cc(Cl)ccc2OC(F)(F)F)n1 [Example A26] |
| 17 | Cc1nc([C@@H]2O[C@H](CO)[C@H](O)[C@H](n3cc(-c4cc(F)c(Cl)c(F)c4)nn3)[C@H]2O)n(-c2cc3sc(C)nc3cc2C(F)(F)F)n1 [Example A30] |
| 22 | Cc1nc([C@@H]2O[C@H](CO)[C@H](O)[C@H](n3cc(-c4ccc(Br)c(F)c4)nn3)[C@H]2O)n(-c2cc3sc(C)nc3cc2C(F)(F)F)n1 [Example A31] |
| 151 | Cc1nc([C@@H]2O[C@H](CO)[C@H](O)[C@H](n3cc(-c4cc(F)c(Br)c(F)c4)nn3)[C@H]2O)n(-c2cc(Cl)ccc2C2CC2)n1 [Example A35] |
| 53 | Cc1nc([C@@H]2O[C@H](CO)[C@H](O)[C@H](n3cc(-c4cc(F)c(Cl)c(F)c4)nn3)[C@H]2O)n(-c2ccc3nc(C)sc3c2)n1 [Example A36] |
| 51 | Cc1nc([C@@H]2O[C@H](CO)[C@H](O)[C@H](n3cc(-c4cc(F)c(Cl)c(F)c4)nn3)[C@H]2O)n(-c2cc(Cl)cc3ccncc23)n1 [Example A37] |
| 72 | Cc1nc([C@@H]2O[C@H](CO)[C@H](O)[C@H](n3cc(-c4ccc(Br)c(F)c4)nn3)[C@H]2O)n(-c2cc(Cl)ccc2C2CC2)n1 [Example A38] |
| 50 | Cc1nc([C@@H]2O[C@H](CO)[C@H](O)[C@H](n3cc(-c4cc(F)c(Cl)c(F)c4)nn3)[C@H]2O)n(-c2cc(C(F)F)ccc2Cl)n1 [Example A43] |
| 54 | Cc1nc([C@@H]2O[C@H](CO)[C@H](O)[C@H](n3cc(-c4ccc(Cl)c(F)c4)nn3)[C@H]2O)n(-c2cc(Cl)c(F)cc2Cl)n1 [Example A47] |
| 52 | Cc1nc([C@@H]2O[C@H](CO)[C@H](O)[C@H](n3cc(-c4ccc(F)c(Cl)c4)nn3)[C@H]2O)n(-c2cc(Cl)ccc2C(F)(F)F)n1 [Example A50] |
| 52 | Cc1nc([C@@H]2O[C@H](CO)[C@H](O)[C@H](n3cc(-c4ccc(Cl)cc4F)nn3)[C@H]2O)n(-c2cc(Cl)ccc2C(F)(F)F)n1 [Example A52] |
| 158 | Cc1nc([C@@H]2O[C@H](CO)[C@H](O)[C@H](n3cc(-c4ncc(Cl)cc4F)nn3)[C@H]2O)n(-c2cc(Cl)ccc2C(F)(F)F)n1 [Example A59] |
| 36 | Cc1nc([C@@H]2O[C@H](CO)[C@H](O)[C@H](n3cc(-c4cc(F)c(Cl)c(F)c4)nn3)[C@H]2O)n(-c2cc(Cl)ccc2C(F)F)n1 [Example A60] |
| 291 | Cc1nc([C@@H]2O[C@H](CO)[C@H](O)[C@H](n3cc(-c4ccc5ncsc5c4)nn3)[C@H]2O)n(-c2cc(Cl)ccc2C(F)(F)F)n1 [Example A63] |
| 87 | Cc1nc([C@@H]2O[C@H](CO)[C@H](O)[C@H](n3cc(-c4ccc5scnc5c4)nn3)[C@H]2O)n(-c2cc(Cl)ccc2C(F)(F)F)n1 [Example A65] |
| 39 | Cc1nc([C@@H]2O[C@H](CO)[C@H](O)[C@H](n3cc(-c4cc(F)c(F)c(F)c4)nn3)[C@H]2O)n(-c2cc(Cl)c(F)cc2Cl)n1 [Example A67] |
